Measurements published in patent US9221827B2, “Antimicrobial compounds and methods of making and using the same” (Melinta Therapeutics, Inc., priority 2011, dated 2015).
Read-outs that look alike come from different tables or passages of the source.

System: Escherichia coli strain ATCC25922
Experiment: standard microdilution assay to determine minimum inhibitory concentrations (MICs)
Format: cell-based
Settings: for MIC: read-out: E. coli ATCC25922 MIC
How it was run: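 MICs come from CLSI-guided microdilution in 100 μl, run alongside reference-strain performance standards. Values appear as "+" or "−" relative to 16 micrograms/ml, with "N/A" marking missing data.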

[1] = Escherichia coli strain ATCC25922, microdilution
[2] = Escherichia coli strain ATCC25922, standard microdilution assay

Row | SMILES | E. coli ATCC25922 MIC [1] | E. coli ATCC25922 MIC [2] | other results
1 | C[C@H](NCCCNC(=N)N)c1ccc(-n2cc3cc(-c4cc(CO[C@@H](C)CN)cc(C(F)(F)F)c4)[nH]c3nc2=O)cc1 [Compound 315] | + (a “+” indicates that the compound has an MIC value of 16 micrograms/ml or less) | – | –
2 | CC(C)Cc1cc(CCC[C@H](C)N)cc(-c2cc3cn(-c4ccc(CNCCCNC(=N)N)cc4)c(=O)nc3[nH]2)c1F [Compound 431] | – | + (a “+” indicates that the compound has an MIC value of 16 micrograms/ml or less) | –
3 | CC(C)(CN)CCc1cc(F)c(Cl)c(-c2cc3cn(-c4ccc(CNCCCNC(=N)N)cc4)c(=O)nc3[nH]2)c1 [Compound 125] | + (a “+” indicates that the compound has an MIC value of 16 micrograms/ml or less) | – | –
4 | CC(N)CCCc1cc(Cl)c(F)c(-c2cc3cn(-c4ccc(C(C)NCCCNC(=N)N)cc4)c(=O)nc3[nH]2)c1 (stereo not drawn) [Compound 269] | + (a “+” indicates that the compound has an MIC value of 16 micrograms/ml or less) | – | –
5 | N=C(N)NCCCNCc1ccc(-n2cc3cc(-c4cc(CCCCN)cc(F)c4Cl)[nH]c3nc2=O)cc1 [Compound 37] | + (a “+” indicates that the compound has an MIC value of 16 micrograms/ml or less) | – | –
6 | N=C(N)NCCCNCc1ccc(-n2cc3cc(-c4cc(C[S+]([O-])CCN)ccc4F)[nH]c3nc2=O)cc1 (stereo not drawn) [Compound 23] | + (a “+” indicates that the compound has an MIC value of 16 micrograms/ml or less) | – | –
7 | COC(=O)CC(NCCCNC(=N)N)c1ccc(-n2cc3cc(-c4cc(CCCC(C)N)cc(C(F)(F)F)c4)[nH]c3nc2=O)cc1 (stereo not drawn) [Compound 488] | + (a “+” indicates that the compound has an MIC value of 16 micrograms/ml or less) | – | –
8 | NCCCCc1cc(OC(F)(F)F)cc(-c2cc3cn(-c4ccc(CNCCCN=C(N)N)cc4F)c(=O)nc3[nH]2)c1 [Compound 90] | + (a “+” indicates that the compound has an MIC value of 16 micrograms/ml or less) | – | –
9 | N=C(N)NCCCNCc1ccc(-n2cc3cc(-c4cc(CCC(O)CN)cc(OC(F)(F)F)c4)[nH]c3nc2=O)cc1 (stereo not drawn) [Compound 240] | + (a “+” indicates that the compound has an MIC value of 16 micrograms/ml or less) | – | –
10 | Cc1c(-c2cc3cn(-c4ccc(CNCCCNC(=N)N)cc4)c(=O)nc3[nH]2)cc(CCC[C@H](C)N)cc1C(C)C [Compound 446] | – | + (a “+” indicates that the compound has an MIC value of 16 micrograms/ml or less) | –
11 | C[C@H](NCCCNC(=N)N)c1ccc(-n2cc3cc(-c4cc(C5CCC(CN)CC5)cc(Cl)c4F)[nH]c3nc2=O)cc1 (stereo partly drawn) [Compound 451] | – | + (a “+” indicates that the compound has an MIC value of 16 micrograms/ml or less) | –
12 | C[C@H](N)CCCc1cc(Cl)c(F)c(-c2cc3cn(-c4ccc([C@H](C)NCCCNC(=N)N)cc4)c(=O)nc3[nH]2)c1 [Compound 234] | – | – | MIC [1]: ≤ 16 µg/mL
13 | C[C@H](N)c1ccc(-n2cc3cc(-c4cc(CCCC(C)(C)N)cc(Cl)c4F)[nH]c3nc2=O)cc1 [Compound 373] | – | − (a “−” indicates that the compound has an MIC value greater than 16 micrograms/ml) | –
14 | N=C(N)NCCCNCc1ccc(-n2cc3cc(-c4cc(CCC5(CN)CCC5)cc(OC(F)(F)F)c4)[nH]c3nc2=O)cc1 [Compound 96] | + (a “+” indicates that the compound has an MIC value of 16 micrograms/ml or less) | – | –
15 | COCCNC[C@@H]1C[C@@H](NC(=O)Nc2nc(=O)c(-c3ccc(CNCCCNC(=N)N)cc3)c[nH]2)CN1C[C@@H](C)CN [Compound 152] | + (a “+” indicates that the compound has an MIC value of 16 micrograms/ml or less) | – | –
16 | CC(N)CCc1cc(Cl)c(F)c(-c2cc3cn(-c4ccc(CNCCCNC(=N)N)cc4)c(=O)nc3[nH]2)c1 (stereo not drawn) [Compound 257] | + (a “+” indicates that the compound has an MIC value of 16 micrograms/ml or less) | – | –
17 | C[C@H](N)COCc1cc(SC(F)(F)F)cc(-c2cc3cn(-c4ccc(CNCCCNC(=N)N)cc4)c(=O)nc3[nH]2)c1 [Compound 344] | – | + (a “+” indicates that the compound has an MIC value of 16 micrograms/ml or less) | –
18 | CC(CN)Cc1cc(-c2cc3cn(-c4ccc(CNCCCNC(=N)N)cc4)c(=O)nc3[nH]2)c(F)c(C(F)(F)F)c1 (stereo not drawn) [Compound 280] | + (a “+” indicates that the compound has an MIC value of 16 micrograms/ml or less) | – | –
19 | C[C@H](N)CCCc1cc2c(c(-c3cc4cn(-c5ccc(CNCCCNC(=N)N)cc5)c(=O)nc4[nH]3)c1)COC2 [Compound 442] | – | + (a “+” indicates that the compound has an MIC value of 16 micrograms/ml or less) | –
20 | CC(NCCCNC(=N)N)c1ccc(-n2cc3cc(-c4cc(CC5CC(CN)C5)cc(SC(F)(F)F)c4)[nH]c3nc2=O)cc1 (mixture of isomers) [Compound 401] | – | + (a “+” indicates that the compound has an MIC value of 16 micrograms/ml or less) | –
21 | C[C@H](NCCCNC(=N)N)c1ccc(-n2cc3cc(-c4cc(CC[C@@H](C)N)cc(SC(F)(F)F)c4)[nH]c3nc2=O)cc1 [Compound 398] | – | + (a “+” indicates that the compound has an MIC value of 16 micrograms/ml or less) | –

Row | SMILES | E. coli ATCC25922 MIC [1] | E. coli ATCC25922 MIC [2] | other results
22 | N#Cc1cc(-c2cc3cn(-c4ccc(CNCCCNC(=N)N)cc4)c(=O)nc3[nH]2)cc(CCCCN)c1Cl [Compound 118] | + (a “+” indicates that the compound has an MIC value of 16 micrograms/ml or less) | – | –
23 | CCc1cc(CCCCNC(=N)N)cc(-c2cc3cn(-c4ccc(CNCCCNC(=N)N)cc4)c(=O)nc3[nH]2)c1Cl [Compound 285] | + (a “+” indicates that the compound has an MIC value of 16 micrograms/ml or less) | – | –
24 | CC(N)CCCc1cc(-c2cc3cn(-c4ccc(CNCCCNC(=N)N)cc4)c(=O)nc3[nH]2)cc(C2CCCC2)c1 (stereo not drawn) [Compound 483] | + (a “+” indicates that the compound has an MIC value of 16 micrograms/ml or less) | – | –
25 | C[C@H](N)CCCc1cc(-c2cc3cn(-c4ccc([C@H](C)NCCCNC(=N)N)cc4)c(=O)nc3[nH]2)cc(C(F)(F)F)c1 [Compound 236] | + (a “+” indicates that the compound has an MIC value of 16 micrograms/ml or less) | – | –
26 | CC(NCCCNC(=N)N)c1ccc(-n2cc3cc(-c4cc(OC(F)(F)F)cc(C5CCC(CN)O5)c4)[nH]c3nc2=O)cc1 (stereo not drawn) [Compound 438] | – | + (a “+” indicates that the compound has an MIC value of 16 micrograms/ml or less) | –
27 | CC(NCCCNC(=N)N)c1ccc(-n2cc3cc(-c4cc(CC5CC(CN)C5)cc(C(F)(F)F)c4)[nH]c3nc2=O)cc1 (stereo not drawn) [Compound 350] | – | + (a “+” indicates that the compound has an MIC value of 16 micrograms/ml or less) | –
28 | CS(=O)(=O)Nc1cc(CCCCN)cc(-c2cc3cn(-c4ccc(CNCCCNC(=N)N)cc4)c(=O)nc3[nH]2)c1 [Compound 48] | + (a “+” indicates that the compound has an MIC value of 16 micrograms/ml or less) | – | –
29 | Cc1cc(CCCCN)cc(-c2cc3cn(-c4ccc(CNCCCNC(=N)N)cc4)c(=O)nc3[nH]2)c1C(F)(F)F [Compound 222] | + (a “+” indicates that the compound has an MIC value of 16 micrograms/ml or less) | – | –
30 | N=C(N)NCCCNCc1ccc(-n2cc3cc(-c4cc(CC(O)CCN)cc(OC(F)(F)F)c4)[nH]c3nc2=O)cc1 (stereo not drawn) [Compound 252] | + (a “+” indicates that the compound has an MIC value of 16 micrograms/ml or less) | – | –
31 | C[C@H](N)CCCc1cc(C(F)(F)F)cc(-c2cc3cn(-c4ccc([C@H](C)NCCCNC(=N)N)cc4)c(=O)nc3[nH]2)n1 [Compound 390] | – | – | MIC [2]: ≤ 16 µg/mL
32 | CC(N)CCCc1cc(Cl)c(F)c(-c2cc3cn(-c4ccc(C(CC(=O)O)NCCCNC(=N)N)cc4)c(=O)nc3[nH]2)c1 (stereo not drawn) [Compound 489] | + (a “+” indicates that the compound has an MIC value of 16 micrograms/ml or less) | – | –
33 | C[C@H](N)CCCc1cc(Cl)c(F)c(-c2cc3cn(-c4ccc(CNCCCN/C(N)=N\[N+](=O)[O-])cc4)c(=O)nc3[nH]2)c1 [Compound 394] | – | + (a “+” indicates that the compound has an MIC value of 16 micrograms/ml or less) | –
34 | N=C(N)NCCCNCc1ccc(-n2cc3cc(-c4cc(CCCCN)cc(C5CNC5)c4)[nH]c3nc2=O)cc1 [Compound 4] | + (a “+” indicates that the compound has an MIC value of 16 micrograms/ml or less) | – | –
35 | C[C@H](N)CCCc1cc(-c2cc3cn(-c4ccc([C@H](C)NCCCNC(=N)N)cc4)c(=O)nc3[nH]2)cc2c1OCCO2 [Compound 469] | + (a “+” indicates that the compound has an MIC value of 16 micrograms/ml or less) | – | –
36 | C[C@H](N)CCCc1cc(-c2cc3cn(-c4ccc([C@H](C)NCCCNC(=N)N)cc4)c(=O)nc3[nH]2)c(F)c(C2CCOC2)c1 (stereo partly drawn) [Compound 466] | – | + (a “+” indicates that the compound has an MIC value of 16 micrograms/ml or less) | –
37 | N=C(N)NCCCNCc1ccc(-n2cc3cc(-c4cc(CCC(O)CN)cc(Cl)c4F)[nH]c3nc2=O)cc1 (stereo not drawn) [Compound 254] | + (a “+” indicates that the compound has an MIC value of 16 micrograms/ml or less) | – | –
38 | CC(NCCCNC(=N)N)c1ccc(-n2cc3cc(-c4cc(C5CCC(N)CC5)cc(C(F)(F)F)c4)[nH]c3nc2=O)cc1 (mixture of isomers) [Compound 426] | – | + (a “+” indicates that the compound has an MIC value of 16 micrograms/ml or less) | –
39 | Cc1cc(CCC[C@H](C)N)cc(-c2cc3cn(-c4ccc(CNCCCNC(=N)N)cc4)c(=O)nc3[nH]2)c1Cl [Compound 313] | + (a “+” indicates that the compound has an MIC value of 16 micrograms/ml or less) | – | –
40 | CC(CN)Cc1cc(Cl)c(F)c(-c2cc3cn(-c4ccc(CNCCCNC(=N)N)cc4)c(=O)nc3[nH]2)c1 (stereo not drawn) [Compound 256] | + (a “+” indicates that the compound has an MIC value of 16 micrograms/ml or less) | – | –
41 | C[C@H](N)CCCc1cc(Cl)c(F)c(-c2cc3cn(-c4ccc([C@@H](C)N)cc4)c(=O)nc3[nH]2)c1 [Compound 406] | – | − (a “−” indicates that the compound has an MIC value greater than 16 micrograms/ml) | –
42 | CCNCCc1cc(CCCCN)cc(-c2cc3cn(-c4ccc(CNCCCNC(=N)N)cc4)c(=O)nc3[nH]2)c1 [Compound 26] | + (a “+” indicates that the compound has an MIC value of 16 micrograms/ml or less) | – | –
